Experimental findings from ChEMBL document CHEMBL1138213, “Novel multipotent tacrine-dihydropyridine hybrids with improved acetylcholinesterase inhibitory and neuroprotective activities as potential drugs for the treatment of Alzheimer's disease” (J Med Chem, 2006) are described below.

Test [1] is described as follows: cells. To be noted: Homo sapiens, SH-SY5Y.
Description: Antagonist activity at calcium channel expressed in SH-SY5Y cells assessed as blockade of potassium-induced calcium influx increase at 0.3 uM relative to control
The target of test [2] is Acetylcholinesterase (Electrophorus electricus, UniProt O42275).
Description: Inhibition of Electrophorus electricus AChE
In test [3] the target is Acetylcholinesterase (Homo sapiens, UniProt P22303).
Description: Inhibition of human erythrocyte AChE
Test [4] deals with Cholinesterase (Homo sapiens, UniProt P06276).
Description: Inhibition of human serum BuChE
Test [5] relates to SH-SY5Y. Nature of the test: cells. To be noted: Homo sapiens, read-out: Activity.
Description: Viability of SH-SY5Y cells measured as neuroprotection activity in presence of H2O2 at 0.3 uM relative to control

Chain of Acetylcholinesterase (Homo sapiens, UniProt P22303) (P22303 whole entry): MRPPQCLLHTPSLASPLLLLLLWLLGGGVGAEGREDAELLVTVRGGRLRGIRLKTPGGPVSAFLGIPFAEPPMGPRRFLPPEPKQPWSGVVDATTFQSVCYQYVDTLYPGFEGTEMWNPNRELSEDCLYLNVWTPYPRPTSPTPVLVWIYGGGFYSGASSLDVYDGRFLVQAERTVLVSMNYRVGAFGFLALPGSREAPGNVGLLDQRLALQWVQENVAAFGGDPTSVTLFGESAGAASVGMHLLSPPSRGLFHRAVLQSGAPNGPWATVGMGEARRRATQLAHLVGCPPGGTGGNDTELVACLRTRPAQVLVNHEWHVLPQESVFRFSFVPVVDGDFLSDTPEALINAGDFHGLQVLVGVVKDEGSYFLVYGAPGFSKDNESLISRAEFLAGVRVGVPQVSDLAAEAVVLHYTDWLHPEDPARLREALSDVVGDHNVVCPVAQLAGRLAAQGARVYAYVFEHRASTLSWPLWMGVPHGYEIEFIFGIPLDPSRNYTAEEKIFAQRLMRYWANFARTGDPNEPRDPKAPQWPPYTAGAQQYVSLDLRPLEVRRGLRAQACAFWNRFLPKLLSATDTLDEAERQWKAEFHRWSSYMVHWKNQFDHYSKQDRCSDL
Chain of Cholinesterase (P06276 whole entry): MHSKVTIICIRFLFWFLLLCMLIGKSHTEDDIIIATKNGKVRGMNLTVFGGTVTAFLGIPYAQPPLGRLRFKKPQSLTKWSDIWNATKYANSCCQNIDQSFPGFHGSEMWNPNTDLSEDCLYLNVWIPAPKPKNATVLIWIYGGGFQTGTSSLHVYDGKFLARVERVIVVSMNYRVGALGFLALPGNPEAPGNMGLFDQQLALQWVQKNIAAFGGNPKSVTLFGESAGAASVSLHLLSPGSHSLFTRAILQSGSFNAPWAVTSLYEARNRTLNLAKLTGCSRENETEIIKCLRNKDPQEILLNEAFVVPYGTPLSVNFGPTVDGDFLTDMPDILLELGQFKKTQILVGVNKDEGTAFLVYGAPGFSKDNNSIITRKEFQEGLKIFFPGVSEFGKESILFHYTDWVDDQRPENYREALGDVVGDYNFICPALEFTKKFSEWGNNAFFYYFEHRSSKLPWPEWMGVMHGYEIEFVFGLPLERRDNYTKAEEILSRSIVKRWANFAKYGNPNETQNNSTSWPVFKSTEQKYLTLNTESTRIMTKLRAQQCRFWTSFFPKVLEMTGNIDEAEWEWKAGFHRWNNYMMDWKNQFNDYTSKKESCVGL
Chain of Acetylcholinesterase (Electrophorus electricus, UniProt O42275) (O42275 whole entry): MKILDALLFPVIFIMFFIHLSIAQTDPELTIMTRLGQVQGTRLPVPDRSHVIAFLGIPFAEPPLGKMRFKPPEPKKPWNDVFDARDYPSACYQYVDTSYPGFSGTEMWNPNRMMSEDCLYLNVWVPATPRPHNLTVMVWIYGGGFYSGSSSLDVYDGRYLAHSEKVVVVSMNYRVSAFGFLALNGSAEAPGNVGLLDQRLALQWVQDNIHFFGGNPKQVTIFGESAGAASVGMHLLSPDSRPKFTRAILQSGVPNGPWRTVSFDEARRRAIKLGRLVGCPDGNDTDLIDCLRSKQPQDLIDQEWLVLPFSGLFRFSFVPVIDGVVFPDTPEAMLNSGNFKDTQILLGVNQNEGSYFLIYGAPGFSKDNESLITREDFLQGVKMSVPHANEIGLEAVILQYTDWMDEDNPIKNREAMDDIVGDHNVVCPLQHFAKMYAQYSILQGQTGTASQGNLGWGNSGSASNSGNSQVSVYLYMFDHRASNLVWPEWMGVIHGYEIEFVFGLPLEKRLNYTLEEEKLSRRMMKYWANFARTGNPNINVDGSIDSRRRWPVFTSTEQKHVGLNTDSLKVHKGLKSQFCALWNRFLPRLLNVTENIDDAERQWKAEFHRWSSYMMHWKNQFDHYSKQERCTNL

In the case of `CCOC(=O)C1=C(C)Nc2nc3c(c(N)c2C1c1ccc(OC)cc1)CCCC3` (stereo not drawn), the inhibition (commonly the change of the read-out against control, counted positive when it falls) at 0.3 µM in test [1] came out at 32.8%.
Still for that read-out and setting: under `CCOC(=O)C1=C(C)Nc2nc3c(c(N)c2C1c1cccc(OC)c1)CCCC3` (stereo not drawn) stands 31%; under `CCOC(=O)C1=C(C)Nc2nc3c(c(N)c2C1c1ccc(F)cc1)CCCC3` (stereo not drawn), 22.2%.
With `CCOC(=O)C1=C(C)Nc2nc3c(c(N)c2C1c1ccccc1)CCCC3` (stereo not drawn), the IC50 – broadly, the concentration at which inhibition is half-maximal – is 80 nM in test [2], 122 nM in test [3] and > 100000 nM in test [4]. The inhibition at 0.3 µM in test [1] was found to be 36.6%. Moreover, in test [5], the viability at 0.3 µM came out at 30.6%.
In test [1], `CCOC(=O)C1=C(C)Nc2nc3c(c(N)c2C1c1ccccc1[N+](=O)[O-])CCCC3` (stereo not drawn) came in with an inhibition at 0.3 µM of 32.6%.
With `CCOC(=O)C1=C(C)Nc2nc3c(c(N)c2C1c1cccc([N+](=O)[O-])c1)CCCC3` (stereo not drawn), the inhibition at 0.3 µM in test [1] is 33.6%.
The compound `COCCOC(=O)C1=C(C)NC(C)=C(C(=O)OC(C)C)C1c1cccc([N+](=O)[O-])c1` (stereo not drawn) [NIMODIPINE] had an inhibition at 0.3 µM in test [1] of 45.5%. Moreover, the viability at 0.3 µM in test [5] worked out at 36%.
As for `CCOC(=O)C1=C(C)Nc2nc3c(c(N)c2C1c1ccc(C)cc1)CCCC3` (stereo not drawn), the half-maximal inhibitory concentration (IC50) in test [2] was 91 nM; in test [3], 169 nM; in test [4], > 100000 nM. The compound further registered an inhibition at 0.3 µM in test [1] of 29.8%. In addition, the viability at 0.3 µM in test [5] is 53.7%.
Take `CCOC(=O)C1=C(C)Nc2nc3c(c(N)c2C1c1ccc([N+](=O)[O-])cc1)CCCC3` (stereo not drawn): the results for the IC50 in test [2], in test [3] and in test [4] were 600 nM, 309 nM and 34400 nM, respectively. Also, the inhibition at 0.3 µM in test [1] turned out to be 66.7%. Further, the viability at 0.3 µM in test [5] amounted to 35.5%.
`CCOC(=O)C1=C(C)Nc2nc3c(c(N)c2C1c1ccccc1OC)CCCC3` (stereo not drawn): at 0.3 µM the inhibition in test [1] was 46.5%.
